How the values were obtained:
[1] = test system: luciferase expressing Raji cells; assay: Luciferase based phagocytosis assay; assay type: cell-based; conditions: human monocyte-derived macrophages, luminescence, read-out: % normalized phagocytosis (at 10 μM)
Experimental: (§1) DPBS (Gibco), RPMI 1640 WITH HEPES AND L-GLN-500 ML (Lonza), Recombinant Human M-CSF (R& D systems), CD47 Monoclonal Antibody (B6H12), Functional Grade antibody (Ebioscience), Mouse IgG1 kappa Isotype Control, Functional Grade (Ebioscience), Vacutainer (multiple sample luer adapter) (BD), Vacutainer (sodium heparin (NH) 158USP units, Blood collection tubes (BD), Histopaque (density—1.077 gm/ml) (SIGMA 1077), Trypan Blue solution (SIGMA-T8154), Hemacytometer (Bright line-SIGMA Z359629), Scalp vein infusion set (JMS), Cell Dissociation buffer (Gibco), 48-well sterile flat bottom plates (Corning), Luciferase expressing Raji cells (Generated in house by trasfection of luciferase gene in Raji cells) Luminometer, Hygromycin B (Invitrogen), Bright Glo luciferase assay system (Promega), 96 well plate, polystyrene, high band, white flat bottom wells (Sigma CLS3912), APC anti-mouse/human CD11b Antibody (Biolegend), H929 cells, CFSE (Ebioscience), Fetal Bovine Serum (Gibco Cat #: 10437028), Round-Bottom FACs Tubes (BD), Flowcytometer BD FACS Verse, 96 well plates, ultra-low attachment (Corning).
In vitro phagocytosis assay was performed to evaluate the ability of test item to enhance the phagocytic activity of macrophages. Monocytes were isolated from blood of healthy donor and cultured for 6-8 days using 10% RPMI (Roswell Park Memorial Institute) media and recombinant human M-CSF to differentiate into macrophages. Media was changed every alternate day. After differentiation, adherent macrophages were collected by gentle scraping and cultured in 10% RPMI overnight at a density of 0.1 million per well in 48 well tissue culture plate. Simultaneously, luciferase expressing Raji cells were cultured in 10% RPMI media with 100 μg/mL of hygromycin B in tissue culture flask. On the day of phagocytosis, macrophages were serum starved for 2 hours. 0.4 million luciferase expressing Raji cells per well were incubated with anti human CD47 purified B6H12 or Mouse IgG1 K Isotype Control antibody or various concentrations of test item in serum free media for 30 min at 37° C. and added into respective well of the 48 well plate seeded with macrophages. After 2 hours, cells were washed twice with PBS and 100 μL of serum free RPMI was added to each well. Additionally, 50 μL Bright Glow reagent was added to each well followed by mixing of cells and incubated for 5 min in dark. Luminescence reading was taken using plate reader after transferring the content of each well to white plate. Intensity of luminescence indicated the extent of phagocytosis. Each experimental condition was carried out in duplicate.

H929 cells = assay: FACS based phagocytosis assay; assay type: cell-based; conditions: NCI-H929, human macrophages, CFSE stained H929 cells, flow cytometry, normalized to positive control B6H12
Experimental: as §1
Monocytes were isolated from blood of healthy donor and cultured for 6-8 days using 10% RPMI (Roswell Park Memorial Institute) media and recombinant human M-CSF to differentiate into macrophages. Media was changed every alternate day. Simultaneously, H929 cells were cultured in 10% RPMI media with 50 μg/mL of betamercaptoethanol in tissue culture flask. On the day of phagocytosis adherent macrophages were serum starved for 2 hours in RPMI media. Simultaneously H929 cells were stained with 0.3 μM CFSE stain. After washing, 0.2 million CFSE stained H929 cells were incubated with anti-human CD47 or Mouse IgG1 K Isotype Control antibody or various conc of test item in serum free media for 30 min at 37° C. After 2 hours of serum starvation macrophages were dissociated with cell dissociation buffer and collected by gentle scraping and added at conc of 0.05 million per well into respective wells of the ultra-low attachment 96 well plate seeded with H929 cells. Phagocytosis was allowed for 2 hours. After 2 hours, cells were washed with PBS and stained with 1 μL of anti-human CD11b-APC antibody prepared in 100 μL of PBS for 30 min in 4° C. in dark. Cells were further washed and fixed in 100 μL of fixation buffer until acquired by Flow cytometry. The extent of phagocytosis of H929 cells by human macrophages was measured by acquiring the samples by Flow cytometry. Samples acquired by Flow cytometry were analysed by using FlowJo software. Each experimental condition was carried out in duplicate. Cells positive for FITC (CFSE) and CD11b-APC were considered as phagocytosed macrophages. Raw data of % phagocytosis by macrophages were obtained in the form of excel sheet from FlowJo. % phagocytosis from isotype control (background phagocytosis) was subtracted from % phagocytosis of macrophages treated with compound as well as other controls to get corrected phagocytosis values. Corrected phagocytosis values of compound treated samples were normalized with phagocytosis of positive control (B6H12) using the formula: % normalized phagocytosis=[(corrected % phagocytosis of compound)/(corrected phagocytosis of B6H12)*100]

A20 syngeneic lymphoma = assay: Efficacy in A20 syngeneic lymphoma model; assay type: in vivo; conditions: for TGI (%): per orally
Description: Female Balb/c (BALB/cAnNTac) mice (6-8 weeks-old) bred in-house were used in this efficacy study in the A20 syngeneic lymphoma model. Animals were marked individually with tail marks and kept in cages that were identified by a cage card showing the study code, date of experimentation, sex and number of animals. During the experiment, the animals were weighed daily. A20 cell line (B-cell lymphoma line derived from a spontaneous reticulum cell neoplasm found in an old BALB/cAnN mouse) was procured from ATCC. When the mean tumor volumes reached approximately 75 mm^3, the animals were randomized based on tumour volumes into four groups of twelve animals in each group. Following randomization into various treatment groups, dosing with vehicle and Compound 6 was initiated. All treatments were administered per orally at a twice daily dosing frequency using a dose of 3 mg/kg, 10 mg/Kg and 30 mg/Kg. The treatment was continued for a period of 21 days after which the overall efficacy and tolerability were evaluated based on tumor volume and body weight changes observed during the treatment period. On treatment day 21, animals from all the treatment groups were sacrificed in sequential order at 1 hour after last dose administration.
Individual animal body weights were recorded daily before the administration of test item throughout the experimental period. […] The tumor volumes were measured in all treatment group animals thrice a week (once every 2-3 days) using a digital Vernier callipers. From an ethical viewpoint, any treatment/control group with a mean tumor weight in excess of 10% of animal body weight were humanely sacrificed. As a measure of efficacy, the % T (treatment)/C(control) and % TGI (% Tumor growth inhibition) values were calculated. Graphs and statistical analysis were performed using GraphPad Prism®, Version 7.0. For analysis of tumor volume data, statistical comparison was done on Day 21 for all groups using One-way ANOVA with Dunnett's multiple comparison test. All analyses and comparisons was evaluated at the 5% (p<0.05) level. A “p” value less than 0.05 was considered as significant.

Compound: NC(=O)CC[C@H](N)c1noc(CNC(=O)N2CCCC2C(=O)O)n1 (stereo partly shown) [Compound 6]
- activation at 10 µM [1]: 66%
- activation at 10 µM (H929 cells): 74%
- TGI (%) (A20 syngeneic lymphoma; 3 mg/kg (bid), 21 days, Balb/c mice): 53%
- TGI (%) (A20 syngeneic lymphoma; 10 mg/kg (bid), 21 days, Balb/c mice): 64%
- TGI (%) (A20 syngeneic lymphoma; 30 mg/kg (bid), 21 days, Balb/c mice): 67%
- tolerability (body weight, clinical signs of toxicity) (A20 syngeneic lymphoma; 3, 10 and 30 mg/kg bid per orally, 21 days, Balb/c mice): well tolerated without any signs of body weight loss and/or clinical signs of toxicity
- antitumor efficacy, significance of tumor growth inhibition (A20 syngeneic lymphoma; all the tested dose levels (3, 10, 30 mg/kg bid), Day 21, one-way ANOVA): statistically significant tumor growth inhibition (TGI) at all the tested dose levels

From patent US12565515B2, “1,2,4-oxadiazole compounds as inhibitors of CD47 signalling pathways” (AURIGENE ONCOLOGY LIMITED, priority 2018, dated 2026)
